Test results from patent publication US5475021A, “Compounds and compositions for inhibition of cyclooxygenase activity” (Vanderbilt University, priority 1993, dated 1995).
Like-named read-outs stand apart in the source and are kept apart here. Values belong to the compound of their own block, whether it stands above or below them.

Columns and labels:
[1] = molecular target: T1, Holo Prostaglandin Endoperoxide Synthase (cyclooxygenase activity) (Ovis aries, UniProt P05979); assay: Instantaneous inactivation of the cyclooxygenase activity of holo PGHS (oxygen consumption); format: biochemical, ram (seminal vesicles); settings: for IC50: enzyme 0.25 μM, oxygen consumption
T1 construct: PGHS was purified from ram seminal vesicles; from tissue; host or cells: ram seminal vesicles
T1 sequence (P05979 25-600): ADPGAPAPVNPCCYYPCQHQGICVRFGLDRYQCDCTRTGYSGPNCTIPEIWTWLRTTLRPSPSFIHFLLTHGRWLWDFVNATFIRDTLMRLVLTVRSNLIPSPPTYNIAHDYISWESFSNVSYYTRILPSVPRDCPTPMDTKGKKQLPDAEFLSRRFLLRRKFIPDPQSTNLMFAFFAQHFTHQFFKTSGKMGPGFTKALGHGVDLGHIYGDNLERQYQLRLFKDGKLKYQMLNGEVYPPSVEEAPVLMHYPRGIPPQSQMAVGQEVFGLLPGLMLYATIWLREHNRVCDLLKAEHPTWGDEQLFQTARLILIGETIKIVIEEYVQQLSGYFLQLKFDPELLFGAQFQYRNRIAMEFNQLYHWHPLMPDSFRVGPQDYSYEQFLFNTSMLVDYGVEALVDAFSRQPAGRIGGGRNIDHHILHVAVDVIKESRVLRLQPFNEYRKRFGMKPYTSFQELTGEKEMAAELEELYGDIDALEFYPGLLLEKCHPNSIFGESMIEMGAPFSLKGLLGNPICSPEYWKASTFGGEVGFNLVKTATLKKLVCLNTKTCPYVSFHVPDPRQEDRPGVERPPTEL
Procedure: (§1) PGHS was purified from ram seminal vesicles.
(§2) Oxygen consumption was measured at 37° C. with a Gilson model 5/6 oxygraph equipped with a clark electrode and a thermostatted cuvette. Enzyme aliquots were added to 100 mM Tris-HCl at pH 8 containing 500 μM phenol and […] hematin. Oxygen uptake was initiated by the addition of 100 mM sodium arachidonate, and the initial reaction velocity was determined from the linear portion of the oxygen uptake curve.
The reaction mixture was allowed to reconstitute for 1 min and then varying inhibitor concentration were added to the reaction mixture. As quickly as possible, the cyclooxygenase reaction was initiated by the addition of 100 mM sodium arachidonate. […]

[2] = molecular target: T2, holo PGHS (cyclooxygenase activity) (Ovis aries, UniProt P05979); assay: Time dependent inactivation of cyclooxygenase activity; format: biochemical, ram (seminal vesicles); settings: enzyme 0.25 μM; for Oxygen Consumption, T = 0: control 221; for Oxygen Consumption, T = 30: T = 30 (min), control 210; for Oxygen Consumption, T = 60: control 211
T2 sequence (P05979 25-600): T1 sequence (P05979 25-600)
Procedure: as §1, §2
A reaction mixture containing a 100 fold excess of the inhibitor(versus the enzyme concentration) (from a 10 mM stock in DMSO) and holo PGHS (5.3 mg/mL) (reconstituted with one equivalent of hematin) was incubated in a eppendorf tube at room temperature. Aliquots of the incubation mixture, at time intervals of t=0, 30 and 60 min were added to the oxygraph cell already containing 1.25 mL Tris HCL, 100 mM, pH 8, at 37° C., 500 μM phenol and 25 μL of 50 μM hematin. The cyclooxygenase reaction was initiated by the addition of 13 μL of 10 mM sodiumarachidonate in 10% MeOH (final concentration of AA was 100 μM). The oxygen consumption was measured from the linear portion of the O2 uptake curve.

holo PGHS [3] = settings: Ser 530 in sheep (Ser 529 in humans); cited from earlier work
[4] = molecular target: T3, holo PGHS (peroxidase activity) (Ovis aries, UniProt P05979); assay: Instantaneous inactivation of peroxidase activity (guaiacol oxidation); format: biochemical, ram (seminal vesicles); settings: for IC50: enzyme 0.25 μM
T3 construct: PGHS was purified from ram seminal vesicles; from tissue; host or cells: ram seminal vesicles
T3 sequence (P05979 25-600): T1 sequence (P05979 25-600)
Procedure: as §1
Enzyme aliquots were added to 100 mM Tris HCl (pH 8) containing […] heme, 500 μM guaiacol in disposible cuvettes. Reaction was initiated by the addition of 400 μM H2 O2.
This reaction mixture was treated with a given concentration of the inhibitor and then as quickly as possible the peroxidase reaction was initiated by the addition of 0.4 mM H2 O2. The initial rates of oxidation were measured for 20 sec at a repeat rate of 1 second. (Table 4)

[5] = molecular target: T4, PGHS (cyclooxygenase activity) (Ovis aries, UniProt P05979); assay: IC50 for inactivation of cyclooxygenase activity of PGHS after 30 min incubation; format: biochemical, ram (seminal vesicles)
T4 construct: PGHS was purified from ram seminal vesicles; from tissue; host or cells: ram seminal vesicles
T4 sequence (P05979 25-600): T1 sequence (P05979 25-600)
Procedure: as §1, §2
Varying inhibitor concentrations were incubated with reconstituted holo PGHS (final concentration in the oxygraph cell was 250 nM) at room temperature for 30 min. Aliquots of this incubation mixture were added to the oxygraph cell containing 100 mM Tris-HCl at pH 8 with 500 μm of phenol and 1 μM hematin. The reaction mixture was allowed to reconstitute for 1 min and the cyclooxygenase reaction was initiated by the addition of 100 mM sodium arachidonate. (Table 1)
In all experiments the enzyme concentrations was 0.25 μM.

[6] = system: PGHS (peroxidase activity); assay: Inactivation of peroxidase activity of PGHS by cysteine specific reagents; format: biochemical
From the text: (§3) Thiyl radicals (as reviewed in Shoeneich, 1992) can be potentially generated from cysteines present in PGHS, in the catabolism of arachidonic acid. […] Site-directed mutagenesis experiments to mutate these cysteines to serines and their corresponding effect on prostaglandin biosynthesis are presently being carried out.

[7] = system: PGHS (cyclooxygenase activity); assay: Inactivation of cyclooxygenase activity of PGHS by cysteine specific reagents; format: biochemical
From the text: as §3

holo PGHS [8] = assay: Inactivation of holo PGHS; format: biochemical
From the text: as §3

cyclooxygenase = settings: cited from earlier work
guinea pigs = settings: doses much below those required by indomethacin; cited from earlier work
mouse = settings: doses much below those required by indomethacin; cited from earlier work
PGHS protein = assay: Mechanistic studies: conformational change in the PGHS protein
[9] = molecular target: T5, cyclooxygenase activity of PGHS (Ovis aries, UniProt P05979); assay: Inhibition of cyclooxygenase activity of PGHS by analog 2; format: biochemical
T5 sequence (P05979 25-600): T1 sequence (P05979 25-600)
From the text: Preliminary structure-activity studies on compounds with structural similarity indicate the position of oxygen on the omega side chain and the stereochemistry on the oxobicycloheptane ring as the governing factors in the inhibition.
The basis for the inhibitory activity of a given NSAID depends on the interaction of the NSAID with the active site of the enzyme it inhibits. A working model for the active site of fatty acid cyclooxygenase with the pattern recognition of known inhibitors as well as conformational minimizations of the natural substrate AA has been constructed. The Squibb group recently described a novel series of 7-oxabicycloheptylpro stanoic acid derivatives that inhibit AA-induced platelet aggregation and AA oxygenation by platelet and bovine seminal microsomes. […]

[10] = cited from earlier work
[11] = enzyme 0.25 μM, 30 min incubation with inhibitor, read-out: IC50 for inactivation of cyclooxygenase activity of PGHS
[12] = read-out: IC50 (aspirin analogs 44 and 45)

Compound: 2-[2-(N-Maleimidoethoxy)]benzoic acid [Compound 7]
- IC50 [1]: 140 µM
- Oxygen Consumption, T = 0 ([2]; inhibitor 16 μM): 180 µM/min
- Oxygen Consumption, T = 30 ([2]; inhibitor 16 μM): 27 µM/min
- Oxygen Consumption, T = 60 (symbol) ([2]; inhibitor 16 μM, T = 60 (min)): --b

Compound: CC(=O)Oc1ccccc1C(=O)O [Aspirin]
- acylation of Ser 530 of PGHS (holo PGHS [3]): inactivates the cyclooxygenase activity of holo PGHS by regioselective acylation of Ser 530

Compound: O=C(O)CCCCCN1C(=O)C=CC1=O [Compound 1, N-6-(Maleimido)hexanoic acid]
- IC50 [1]: > 800 µM
- IC50 [4]: > 800 µM
- Oxygen Consumption, T = 0 ([2]; inhibitor 16 μM): 212 µM/min
- Oxygen Consumption, T = 30 ([2]; inhibitor 16 μM): 205 µM/min
- Oxygen Consumption, T = 60 ([2]; inhibitor 16 μM, T = 60 (min)): 204 µM/min

Compound: O=C(O)CCCCCCN1C(=O)C=CC1=O [Compound 2, N-7-(Maleimido)heptanoic acid]
- IC50 [1]: 570 µM
- IC50 [4]: > 800 µM
- remaining activity at 800 µM ([4]; pH 8, at 800 μM): 81%
- Oxygen Consumption, T = 0 ([2]; inhibitor 16 μM): 195 µM/min
- Oxygen Consumption, T = 30 ([2]; inhibitor 16 μM): 142 µM/min
- Oxygen Consumption, T = 60 ([2]; inhibitor 16 μM, T = 60 (min)): 106 µM/min

Compound: O=C(O)CCCCCCCCN1C(=O)C=CC1=O [Compound 4, 9-(Maleimido)-1-nonanoic acid]
- IC50 [1]: 26 µM
- Oxygen Consumption, T = 0 ([2]; inhibitor 10 μM): 203 µM/min
- Oxygen Consumption, T = 30 ([2]; inhibitor 10 μM): 121 µM/min
- Oxygen Consumption, T = 60 ([2]; inhibitor 10 μM, T = 60 (min)): 68 µM/min

Compound: O=C(O)c1ccccc1OCCN1C(=O)C=CC1=O [Compound 6 (Example 1), 2-[2-(N-Maleimidoethoxy)]benzoic acid]
- instantaneous inactivation of cyclooxygenase activity [1]: failure

Compound: CCCCCCCCN1C(=O)C=CC1=O [Compound 8]
- IC50 [5, 11]: 250 µM

Compound: CCCCCCCCCN1C(=O)C=CC1=O [Compound 9]
- IC50 [5, 11]: 50 µM

Compound: CCCCCCCCCCN1C(=O)C=CC1=O [Compound 10]
- IC50 [5, 11]: 27 µM

Compound: CC(=O)n1ccnc1 [N-acetylimidazole]
- acylation of Ser 530 of PGHS (holo PGHS [3]): did not result in regioselective acetylation

Compound: CCN1C(=O)C=CC1=O [NEM, N-ethylmaleimide]
- inactivation of peroxidase activity by cysteine specific reagent [6]: time- and concentration-dependent inactivation
- inactivation of cyclooxygenase activity by cysteine specific reagent [7]: time- and concentration-dependent inactivation
- inactivation of holo PGHS (holo PGHS [8]): inactivates holo

Compound: CCCCCCOCC1C2CCC(O2)C1CC=CCCCC(=O)O (centres unmarked) [analog 1]
- inhibition of cyclooxygenase activity in vitro (cyclooxygenase): inhibition of cyclooxygenase activity in vitro
- prevention of AA-induced changes in lung mechanics (guinea pigs): AA-induced changes in lung mechanics in guinea pigs at doses much below those required for similar effects by indomethacin
- prevention of AA-induced sudden death (mouse): prevents AA-induced sudden death in the mouse

Compound: N-11-(Maleimido)undecanoic acid [Compound 5]
- IC50 [1]: 37 µM
- Oxygen Consumption, T = 0 ([2]; inhibitor 10 μM): 207 µM/min
- Oxygen Consumption, T = 30 ([2]; inhibitor 10 μM): 178 µM/min
- Oxygen Consumption, T = 60 ([2]; inhibitor 10 μM, T = 60 (min)): 81 µM/min

The next lines start with results.

- IC50 [5, 11]: 9 µM
Compound: Cc1ccccc1CN1C(=O)C=CC1=O [Compound 11]

- IC50 [5, 11]: 12 µM
Compound: O=C(O)c1ccc(CN2C(=O)C=CC2=O)cc1 [Compound 12]

- IC50 [5, 11]: 40 µM
Compound: O=C(O)c1ccccc1OCCN1C(=O)C=CC1=O [Compound 13]

- instantaneous inactivation of cyclooxygenase activity [1]: did not inactivate PGHS
Compound: O=C(O)CCCCCCCN1C(=O)CCC1=O [Compound 39, N-8-(Succinimido)octanoic acid]
- inhibition of the enzyme at 500 fold excess ([1]; 500 fold excess): did not inhibit the enzyme, even at a 500 fold excess
- instantaneous inactivation of cyclooxygenase activity ([1]; listed as corresponding succinimide): did not display any inactivation at analogous concentrations and at higher concentrations

- Inhibition of cyclooxygenase at 200 μM (footnote a, Table 2) ([5]; 200 μM, 30 min incubation): No significant inhibition observed
- IC50 [5, 12]: > 200 µM
Compound: CC(=O)Oc1cc(N2C(=O)C=CC2=O)ccc1C(=O)O [Compound 44]

- IC50 [5, 12]: 29 µM
Compound: CC(=O)Oc1ccc(N2C(=O)C=CC2=O)cc1C(=O)O [Compound 45]

- time-dependent inhibition of cyclooxygenase activity [9]: potent time-dependent inhibitor
- IC50 ([9]; enzyme concentration 140 nM): 0.08 µM
- IC100 ([9]; enzyme concentration 140 nM, read-out: concentration with complete inhibition): 0.15 µM
Compound: CCCCCCOCC1C2CCC(O2)C1CC=CCCC(C)(C)C(=O)O (centres unmarked) [analog 2]
- inhibition of cyclooxygenase activity in vitro (cyclooxygenase): displays the same activities as analog 1
- conformational change in the PGHS protein (PGHS protein): induces a conformational change in the PGHS protein
- duration of action in vivo, relative to analog 1 [10]: longer duration of action in vivo
